Paper PMC4293281 (Bioorganic & medicinal chemistry, 2014)
In brackets after ≈: the same amount, converted by molar mass.

Key:
HEK293 cells = assay: HEK293 cell viability; type: cell-based, human; conditions: 20 h incubation, Cell Titer-Glo
SV40 T Ag = SV40 T Ag (Simian virus 40, UniProt P03070); assay: steady state ATPase assay with SV40 T Ag; type: biochemical; conditions: for inhibition of SV40 T Ag ATPase activity at 100 μM: final concentration 100 μM, percent activity relative to T Ag without inhibitor
Sequence of SV40 T Ag (P03070 whole entry): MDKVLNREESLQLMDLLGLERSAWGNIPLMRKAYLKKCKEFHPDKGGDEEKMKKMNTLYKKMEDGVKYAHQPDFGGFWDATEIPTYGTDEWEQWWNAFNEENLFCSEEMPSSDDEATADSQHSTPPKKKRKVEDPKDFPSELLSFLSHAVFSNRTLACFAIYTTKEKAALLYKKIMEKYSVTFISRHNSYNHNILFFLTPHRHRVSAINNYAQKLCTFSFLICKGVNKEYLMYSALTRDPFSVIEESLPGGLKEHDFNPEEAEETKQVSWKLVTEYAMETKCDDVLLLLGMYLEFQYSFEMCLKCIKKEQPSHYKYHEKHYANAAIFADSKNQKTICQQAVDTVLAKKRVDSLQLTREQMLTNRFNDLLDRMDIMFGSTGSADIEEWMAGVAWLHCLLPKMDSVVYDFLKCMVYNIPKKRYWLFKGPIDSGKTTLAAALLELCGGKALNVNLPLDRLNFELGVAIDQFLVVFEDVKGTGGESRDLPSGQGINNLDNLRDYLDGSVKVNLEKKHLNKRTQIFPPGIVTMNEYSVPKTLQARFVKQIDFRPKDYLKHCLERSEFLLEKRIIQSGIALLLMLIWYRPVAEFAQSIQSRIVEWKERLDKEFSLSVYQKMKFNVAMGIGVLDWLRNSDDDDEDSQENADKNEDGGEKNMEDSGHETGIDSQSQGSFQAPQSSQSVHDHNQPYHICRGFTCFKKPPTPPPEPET

SV40 = SV40 viral DNA replication assay in CV1 cells; type: cell-based, Simian Virus 40 in CV1 monkey kidney cells; conditions: monkey kidney cells, range of concentrations
[1] = aqueous solubility by LC-HRMS; type: physicochemical; conditions: distilled water, 30 °C, thermodynamic from solid
human Hsp70 = human Hsp70 (Homo sapiens, UniProt P0DMV8); assay: steady state ATPase assay with human Hsp70; type: biochemical
Sequence of human Hsp70 (P0DMV8 whole entry): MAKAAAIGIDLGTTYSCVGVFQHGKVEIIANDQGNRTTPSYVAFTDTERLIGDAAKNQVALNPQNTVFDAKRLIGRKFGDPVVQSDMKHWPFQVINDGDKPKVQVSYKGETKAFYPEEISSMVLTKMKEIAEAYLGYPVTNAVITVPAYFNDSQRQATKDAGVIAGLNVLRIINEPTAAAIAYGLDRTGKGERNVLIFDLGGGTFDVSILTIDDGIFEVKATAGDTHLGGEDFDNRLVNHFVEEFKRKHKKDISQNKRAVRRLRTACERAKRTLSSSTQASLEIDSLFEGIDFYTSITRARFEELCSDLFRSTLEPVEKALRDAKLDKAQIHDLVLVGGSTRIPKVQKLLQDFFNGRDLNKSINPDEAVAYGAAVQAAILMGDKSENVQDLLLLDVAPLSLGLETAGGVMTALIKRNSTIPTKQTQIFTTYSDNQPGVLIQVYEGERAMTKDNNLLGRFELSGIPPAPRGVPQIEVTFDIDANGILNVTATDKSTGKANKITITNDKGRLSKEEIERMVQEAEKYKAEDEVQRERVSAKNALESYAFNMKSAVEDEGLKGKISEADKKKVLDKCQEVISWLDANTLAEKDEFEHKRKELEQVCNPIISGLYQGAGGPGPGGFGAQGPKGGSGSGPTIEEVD

[2] = target: human Hsp70 in the presence of a J domain containing yeast protein (Hlj1) (Homo sapiens, UniProt P0DMV8); assay: steady state ATPase assay, Hsp70 stimulated by J domain protein Hlj1; type: biochemical
Sequence of human Hsp70 in the presence of a J domain containing yeast protein (Hlj1) (P0DMV8 whole entry): as above

[3] = target: human Hsp70 in the presence of a human J domain-containing protein (Hdj2) (Homo sapiens, UniProt P0DMV8); assay: steady state ATPase assay, Hsp70 stimulated by J domain protein Hdj2; type: biochemical; conditions: 100 μM versus DMSO control, 60-min time course
Sequence of human Hsp70 in the presence of a human J domain-containing protein (Hdj2) (P0DMV8 whole entry): as above

[4] = compound stability in male mouse liver microsomes; type: in vitro ADME

| Structure (SMILES) | IC50 (SV40 T Ag) [µM] | inhibition of SV40 T Ag ATPase activity at 100 μM (SV40 T Ag) | inhibition of SV40 replication (viral DNA by qPCR) (SV40) | solubility at 24 h [1] [µg/mL] | also measured |
| --- | --- | --- | --- | --- | --- |
| CN[C@@H]1C[C@H]2O[C@@](C)([C@@H]1OC)n1c3ccccc3c3c4c(c5c6ccccc6n2c5c31)C(=O)NC4 [Staurosporine] |  |  |  |  | LD50 (HEK293 cells): < 3 µM |
| CC1=C(C(=O)OCc2ccccc2)C(c2ccc(-c3ccccc3C)cc2)NC(=O)N1CCCCCc1nnn[nH]1 (stereo not drawn) [LR340-006, Benzyl 1-(5-(1H-tetrazol-5-yl)pentyl)-6-methyl-4-(2′-methyl-[1,1′-biphenyl]-4-yl)-2-oxo-1,2,3,4-tetrahydropyrimidine-5-carboxylate] | ~50 |  |  |  | inhibition of SV40 T Ag ATPase activity, titration (SV40 T Ag; titration at 10, 30 and 100 μM): most potent |
| CC1=C(C(=O)OCc2ccccc2)C(c2ccc(-c3ccccc3)cc2)NC(=O)N1Cc1ccc(-c2nnn[nH]2)cc1 (stereo not drawn) [ML282-56, Benzyl 1-(4-(1H-tetrazol-5-yl)benzyl)-4-([1,1′-biphenyl]-4-yl)-6-methyl-2-oxo-1,2,3,4-tetrahydropyrimidine-5-carboxylate] | ~50 | inhibited T Ag ATPase activity | inhibited viral replication | 14.4 ± 0.5 (≈ 25.9 µM) |  |
| CC1=C(C(=O)OCc2ccccc2)C(c2ccc(-c3ccccc3)cc2)NC(=O)N1CCCCCC(=O)NS(C)(=O)=O (stereo not drawn) [ML282-66, Benzyl 4-([1,1′-biphenyl]-4-yl)-6-methyl-1-(6-(methylsulfonamido)-6-oxohexyl)-2-oxo-1,2,3,4-tetrahydropyrimidine-5-carboxylate] |  | inhibited T Ag ATPase activity |  |  | inhibition of SV40 T Ag ATPase activity at 30 μM (SV40 T Ag; titration, 30 μM): reduced compared to ML282-56 |
| CC1=C(C(=O)OCc2ccccc2)C(c2ccc(-c3ccccc3C)cc2)NC(=O)N1Cc1ccc(-c2nnn[nH]2)cc1 (stereo not drawn) [SMAL, Benzyl 1-(4-(1H-tetrazol-5-yl)benzyl)-6-methyl-4-(2′-methyl-[1,1′-biphenyl]-4-yl)-2-oxo-1,2,3,4-tetrahydropyrimidine-5-carboxylate] | ~5 |  | inhibited viral replication | 62.4 ± 3.1 (≈ 109 µM) | IC50 (human Hsp70): ~24 µM; inhibition of endogenous Hsp70 ATPase activity at 30 μM (human Hsp70; final concentration 30 μM versus DMSO control): inhibited the endogenous activity of Hsp70; IC50 [2]: > 30 µM; inhibition of Hdj2 activation of Hsp70 ATPase [3]: stronger than MAL2-11B tetrazole; compound remaining after 60 min incubation ([4]; male mouse liver microsomes, NADPH, 1 h): ~ 68%; stability in liver microsomes ([4]; murine liver microsomes): quite stable |
